The source made the active and inactive calls. The calls are words filed in the database; no cut-off is given here.
What was measured:
[1] = test system: Mus musculus; assay: Inhibition of CCl4-induced ferroptosis in acute liver injury C57BL/6 mouse model assessed as downregulation of NCOA4 level at 10 to 30 mg/kg, ip pretreated with compound for 3 hrs followed by CCl4 induction and measured after 12 to 24 hrs by Western blot analysis; assay type: functional, organism-based; settings: dose 10-30 mg/kg, time 15-27 hrs
[2] = test system: Mus musculus; assay: Inhibition of CCl4-induced ferroptosis in acute liver injury C57BL/6 mouse model assessed as reduction in IL-1beta level in serum at 10 to 30 mg/kg, ip pretreated with compound for 3 hrs followed by CCl4 induction and measured after 12 to 24 hrs by ELISA analysis; assay type: functional, organism-based; settings: dose 10-30 mg/kg, time 15-27 hrs
[3] = test system: AML12; assay: Protection against Erastin-induced ferroptosis in mouse AML12 cells assessed as reduction in lipid peroxidation level at 200 nM measured for 48 hrs; assay type: functional, cell-based
[4] = test system: Mus musculus; assay: Inhibition of CCl4-induced ferroptosis in acute liver injury C57BL/6 mouse model assessed as reduction in IL-6 level in serum at 10 to 30 mg/kg, ip pretreated with compound for 3 hrs followed by CCl4 induction and measured after 12 to 24 hrs by ELISA analysis; assay type: functional, organism-based; settings: dose 10-30 mg/kg, time 15-27 hrs
[5] = test system: AML12; assay: Upregulation of FTL level in mouse AML12 cells incubated for 24 hrs by Western blot analysis; assay type: functional, cell-based; settings: dose <= 10.0 µM
[6] = test system: AML12; assay: Downregulation of MDA level in mouse AML12 cells measured for 36 hrs; assay type: functional, cell-based; settings: dose <= 10.0 µM
[7] = test system: AML12; assay: Protection against CCl4-induced ferroptosis in mouse AML12 cells assessed as cell viability in presence of Ferrostatin-1; assay type: functional, cell-based
[8] = test system: Mus musculus; assay: Inhibition of CCl4-induced ferroptosis in acute liver injury C57BL/6 mouse model assessed as decrease in IL-6 expression in liver at 10 to 30 mg/kg, ip pretreated with compound for 3 hrs followed by CCl4 induction and measured after 12 to 24 hrs by q-PCR analysis; assay type: functional, organism-based; settings: dose 10-30 mg/kg, time 15-27 hrs
[9] = test system: Mus musculus; assay: Inhibition of CCl4-induced ferroptosis in acute liver injury C57BL/6 mouse model assessed as inhibition of ALT level at 10 to 30 mg/kg, ip pretreated with compound for 3 hrs followed by CCl4 induction and measured after 12 to 24 hrs; assay type: functional, organism-based; settings: dose 10-30 mg/kg, time 15-27 hrs
[10] = test system: Mus musculus; assay: Inhibition of CCl4-induced ferroptosis in acute liver injury C57BL/6 mouse model assessed as reduction in MDA content in liver at 10 to 30 mg/kg, ip pretreated with compound for 3 hrs followed by CCl4 induction and measured after 12 to 24 hrs; assay type: functional, organism-based; settings: dose 10-30 mg/kg, time 15-27 hrs
[11] = test system: AML12; assay: Protection against CCl4-induced ferroptosis in mouse AML12 cells assessed as reduction in ptgs2 mRNA level at 200 to 1000 nM measured for 36 hrs by qRT-PCR analysis; assay type: functional, cell-based; settings: dose 200-1000 nM
[12] = test system: AML12; assay: Effect on FTH1 mRNA expression in mouse AML12 cells at 0.12 to 10 uM measured for 36 hrs by RT-qPCR analysis; assay type: functional, cell-based; settings: dose 0.12-10 µM
[13] = target: von Hippel-Lindau disease tumor suppressor/Nuclear receptor coactivator 4 (Homo sapiens, UniProt P40337+Q13772); assay: PROTAC activity at NCOA4/VHL in human HeLa cells assessed as downregulation of NCOA4 level measured after 3 hrs by Western blot analysis; assay type: cell-based
Sequence of von Hippel-Lindau disease tumor suppressor/Nuclear receptor coactivator 4 (P40337 whole entry, looked up): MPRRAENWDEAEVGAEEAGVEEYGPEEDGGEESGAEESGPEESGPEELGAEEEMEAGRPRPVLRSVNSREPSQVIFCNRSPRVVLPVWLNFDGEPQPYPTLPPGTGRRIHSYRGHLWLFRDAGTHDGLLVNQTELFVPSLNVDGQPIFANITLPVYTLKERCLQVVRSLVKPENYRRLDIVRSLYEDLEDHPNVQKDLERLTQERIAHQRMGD
Sequence of von Hippel-Lindau disease tumor suppressor/Nuclear receptor coactivator 4 (Q13772 whole entry, looked up): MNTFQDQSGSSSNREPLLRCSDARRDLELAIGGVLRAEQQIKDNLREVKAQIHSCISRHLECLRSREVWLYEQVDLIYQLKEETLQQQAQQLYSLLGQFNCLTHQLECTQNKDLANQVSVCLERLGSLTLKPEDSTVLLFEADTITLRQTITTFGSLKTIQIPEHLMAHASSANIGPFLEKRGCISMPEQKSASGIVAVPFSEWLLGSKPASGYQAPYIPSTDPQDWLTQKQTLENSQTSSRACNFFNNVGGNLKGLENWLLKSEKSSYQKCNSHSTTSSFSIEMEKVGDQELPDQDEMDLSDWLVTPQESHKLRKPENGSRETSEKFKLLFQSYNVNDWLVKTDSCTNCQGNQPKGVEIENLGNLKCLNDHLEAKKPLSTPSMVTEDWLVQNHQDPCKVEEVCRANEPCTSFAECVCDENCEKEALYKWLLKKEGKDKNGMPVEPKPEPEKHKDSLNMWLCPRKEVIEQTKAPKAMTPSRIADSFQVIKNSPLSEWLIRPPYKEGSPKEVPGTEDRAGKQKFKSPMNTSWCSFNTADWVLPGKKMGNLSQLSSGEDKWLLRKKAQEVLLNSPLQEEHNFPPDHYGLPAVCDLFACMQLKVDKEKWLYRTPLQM

[14] = test system: Mus musculus; assay: Inhibition of CCl4-induced ferroptosis in acute liver injury C57BL/6 mouse model assessed as reduction in ptgs2 mRNA level in liver at 10 to 30 mg/kg, ip pretreated with compound for 3 hrs followed by CCl4 induction and measured after 12 to 24 hrs; assay type: functional, organism-based; settings: dose 10-30 mg/kg, time 15-27 hrs
[15] = test system: Mus musculus; assay: Inhibition of CCl4-induced ferroptosis in acute liver injury C57BL/6 mouse model assessed as restoration of liver color fading at 10 to 30 mg/kg, ip pretreated with compound for 3 hrs followed by CCl4 induction and measured after 12 to 24 hrs; assay type: functional, organism-based; settings: dose 10-30 mg/kg, time 15-27 hrs
[16] = test system: Mus musculus; assay: Inhibition of CCl4-induced ferroptosis in acute liver injury C57BL/6 mouse model assessed as reduction in inflammation at 10 to 30 mg/kg, ip pretreated with compound for 3 hrs followed by CCl4 induction and measured after 12 to 24 hrs by H and E staining based analysis; assay type: functional, organism-based; settings: dose 10-30 mg/kg, time 15-27 hrs
[17] = test system: AML12; assay: Protection against Erastin-induced ferroptosis in mouse AML12 cells assessed as attenuation of Fe2+ level by fluorescence imaging analysis; assay type: functional, cell-based
[18] = test system: AML12; assay: Protection against Brequinal-induced ferroptosis in mouse AML12 cells assessed as increase in cell viability at 200 nM measured for 48 hrs by cell counting-lite 2.0 analysis; assay type: functional, cell-based
[19] = test system: Mus musculus; assay: Inhibition of CCl4-induced ferroptosis in acute liver injury C57BL/6 mouse model assessed as attenuation of iron deposition in liver at 10 to 30 mg/kg, ip pretreated with compound for 3 hrs followed by CCl4 induction and measured after 12 to 24 hrs by perls blue staining based analysis; assay type: functional, organism-based; settings: dose 10-30 mg/kg, time 15-27 hrs
[20] = test system: Mus musculus; assay: Inhibition of CCl4-induced ferroptosis in acute liver injury C57BL/6 mouse model assessed as reduction in TNF-alpha level in serum at 10 to 30 mg/kg, ip pretreated with compound for 3 hrs followed by CCl4 induction and measured after 12 to 24 hrs by ELISA analysis; assay type: functional, organism-based; settings: dose 10-30 mg/kg, time 15-27 hrs
[21] = test system: AML12; assay: Protection against CCl4-induced ferroptosis in mouse AML12 cells assessed as reduction in ROS production at 200 to 1000 nM measured for 36 hrs; assay type: functional, cell-based; settings: dose 200-1000 nM
[22] = target: von Hippel-Lindau disease tumor suppressor/Nuclear receptor coactivator 4 (Mus musculus) (UniProt P40338+Q5U4H9); assay: PROTAC activity at NCOA4/VHL in mouse AML12 cells assessed as effect on NCOA4 mRNA level at 0.12 to 10 uM incubated for 24 hrs by qRT-PCR analysis; assay type: cell-based; settings: dose 0.12-10 µM
Sequence of von Hippel-Lindau disease tumor suppressor/Nuclear receptor coactivator 4 (Mus musculus) (P40338 whole entry, looked up): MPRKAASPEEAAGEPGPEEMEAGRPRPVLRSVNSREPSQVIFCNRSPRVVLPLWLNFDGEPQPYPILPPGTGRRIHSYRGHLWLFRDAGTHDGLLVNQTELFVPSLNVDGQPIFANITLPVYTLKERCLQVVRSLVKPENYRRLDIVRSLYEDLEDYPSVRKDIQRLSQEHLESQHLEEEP
Sequence of von Hippel-Lindau disease tumor suppressor/Nuclear receptor coactivator 4 (Mus musculus) (Q5U4H9 whole entry, looked up): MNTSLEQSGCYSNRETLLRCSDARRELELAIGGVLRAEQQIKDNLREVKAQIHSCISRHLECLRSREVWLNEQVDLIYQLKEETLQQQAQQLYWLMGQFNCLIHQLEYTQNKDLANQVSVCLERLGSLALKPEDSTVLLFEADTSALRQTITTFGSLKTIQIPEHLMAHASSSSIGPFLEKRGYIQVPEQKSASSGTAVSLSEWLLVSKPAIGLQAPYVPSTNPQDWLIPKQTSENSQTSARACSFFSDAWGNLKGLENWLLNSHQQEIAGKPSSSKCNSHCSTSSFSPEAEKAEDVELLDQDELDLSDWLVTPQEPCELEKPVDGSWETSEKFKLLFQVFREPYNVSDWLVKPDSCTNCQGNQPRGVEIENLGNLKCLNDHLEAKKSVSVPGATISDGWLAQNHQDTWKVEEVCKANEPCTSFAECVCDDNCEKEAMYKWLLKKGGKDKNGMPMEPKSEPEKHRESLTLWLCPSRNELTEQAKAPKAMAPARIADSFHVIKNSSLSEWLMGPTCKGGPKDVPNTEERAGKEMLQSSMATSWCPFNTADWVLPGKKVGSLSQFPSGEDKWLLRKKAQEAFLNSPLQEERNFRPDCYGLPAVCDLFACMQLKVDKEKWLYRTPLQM

[23] = test system: AML12; assay: Protection against iFSP-induced ferroptosis in mouse AML12 cells assessed as increase in cell viability at 200 nM measured for 48 hrs by cell counting-lite 2.0 analysis; assay type: functional, cell-based
[24] = test system: AML12; assay: Protection against CCl4-induced ferroptosis in mouse AML12 cells assessed as reduction in Fe2+ level at 200 to 1000 nM FerroOrange dye based fluorescence analysis; assay type: functional, cell-based; settings: dose 200-1000 nM
[25] = test system: AML12; assay: Protection against iFSP1-induced ferroptosis in mouse AML12 cells assessed as attenuation of Fe2+ level by fluorescence imaging analysis; assay type: functional, cell-based
[26] = test system: AML12; assay: Protection against RSL3-induced ferroptosis in mouse AML12 cells assessed as reduction in lipid peroxidation level at 200 nM measured for 48 hrs; assay type: functional, cell-based
[27] = test system: AML12; assay: Protection against FINO2-induced ferroptosis in mouse AML12 cells assessed as attenuation of Fe2+ level by fluorescence imaging analysis; assay type: functional, cell-based

Structure (SMILES): Cc1ncsc1-c1ccc(CNC(=O)[C@@H]2C[C@@H](O)CN2C(=O)[C@H](NC(=O)CCCC(=O)NCCOCCOCCOCCOc2ccc3c(c2)CCN(c2cccc(-c4nc5ccc(N6CCN(C)CC6)cc5[nH]4)c2)C3)C(C)(C)C)cc1
- inhibition [1]: Active
- inhibition [2]: Active
- Activity [3]: Active
- inhibition [4]: Active
- Activity [5]: Dose-Dependent Effect
- Activity [6]: Dose-Dependent Effect
- EC50 [7]: 9 nM
- inhibition [8]: Active
- inhibition [9]: Active
- inhibition [10]: Active
- Activity [11]: Active
- Activity [12]: inactive
- Activity [13]: Active
- inhibition [14]: Active
- inhibition [15]: Active
- inhibition [16]: Active
- Activity [17]: Active
- Activity [18]: Active
- inhibition [19]: Active
- inhibition [20]: Active
- Activity [21]: Active
- Activity [22]: Active
- Activity [23]: Active
- Activity [24]: Active
- Activity [25]: Active
- Activity [26]: Active
- Activity [27]: Active

From ChEMBL document CHEMBL5550205, “Discovery of a NCOA4 Degrader for Labile Iron-Dependent Ferroptosis Inhibition” (J Med Chem, 2024)
